From patent US20070167465A1, “Fungicidal mixtures” (BASF AKTIENGESELLSCHAFT, priority 2004, published 2007)

Test system: Pyrenophora teres
Assay: activity against net blotch of barley caused by Pyrenophora teres, 1-day-protective application
Type: in vivo, Pyrenophora [syn. Drechslera] teres on barley seedlings
Conditions: individual active compound, barley seedlings, assessed after 6 days
Description: The active compounds, separately or jointly, were prepared as a stock solution comprising 0.25% by weight of active compound in acetone or DMSO. 1% by weight of the emulsifier Uniperol® EL (wetting agent having emulsifying and dispersant action based on ethoxylated alkylphenols) was added to this solution, and the mixture was diluted with water to the desired concentration.
Use example—activity against net blotch of barley caused by Pyrenophora teres, 1-day-protective application.
Leaves of pot-grown barley seedlings were sprayed to run-off point with an aqueous suspension having the concentration of active compound stated below. 24 hours after the spray coating had dried on, the test plants were inoculated with an aqueous spore suspension of Pyrenophora [syn. Drechslera] teres, the causative agent of net blotch. The test plants were subsequently placed in a greenhouse at temperatures of between 20 and 24° C. and at 95 to 100% relative atmospheric humidity. After 6 days, the extent of development of the disease was determined visually in % infection of the total leaf area.
The visually determined percentages of infected leaf areas were converted into efficacies in % of the untreated control:
The efficacy (E) is calculated as follows using Abbot's formula: E=(1−α/β).100 α corresponds to the fungal infection of the treated plants in % and β corresponds to the fungal infection of the untreated (control) plants in %
An efficacy of 0 means that the infection level of the treated plants corresponds to that of the untreated control plants; an efficacy of 100 means that the treated plants were not infected.
The expected efficacies of mixtures of active compounds were determined using Colby's formula (Colby, S. R. “Calculating synergistic and antagonistic responses of herbicide combinations”, Weeds, 15, 20-22, 1967) and compared with the observed efficacies.
Colby's formula: E=x+y−x·y/100 • E expected efficacy, expressed in % of the untreated control, when using the mixture of the active compounds A and B at the concentrations a and b • x efficacy, expressed in % of the untreated control, when using the active compound A at the concentration a
y efficacy, expressed in % of the untreated control, when using the active compound B at the concentration b

SMILES | Efficacy in % of the untreated control (1.25 ppm in the spray liquor) | Efficacy in % of the untreated control (0.25 ppm in the spray liquor) | Efficacy in % of the untreated control (6.25 ppm in the spray liquor)
CC1CCN(c2c(-c3c(F)cc(F)cc3F)c(Cl)nc3ncnn23)CC1 [I, 5-chloro-7-(4-methylpiperidin-1-yl)-6-(2,4,6-trifluorophenyl)-[1,2,4]triazolo[1,5-a]pyrimidine] | 56 % of the untreated control | – | –
CC(C)NC(=O)N1CC(=O)N(c2cc(Cl)cc(Cl)c2)C1=O [II (iprodione), N-isopropyl-3-(3,5-dichlorophenyl)-2,4-dioxoimidazolidine-1-carboxamide] | 0 % of the untreated control | 0 % of the untreated control | 0 % of the untreated control
